Measurements taken from patent US10074530B1, “Carbon nanotube anchor for mass spectrometer” (University of South Florida, priority 2008, dated 2018).

Test: pH of solute solutions of equivalent molarity
Format: physicochemical
Settings: solution in 1:1 volumetric ratio acetonitrile to de-ionized water; 1.32 × 10^−6 mol, concentration as in Table 3
Work on O=C(O)c1ccccc1 [Benzoic acid] yielded a pH of 3.6.
In the case of Oc1ccccc1O [Catechol], the pH is reported as 4.5.
Work on OCCCCCCCCCCO [Decanediol, 1,10-Decanediol] yielded a pH of 7.6.
With O=C(O)c1ccccc1O [Salicylic acid] the pH was 2.8.
Molecule N#CC(=Cc1ccc(O)cc1)C(=O)O [αCHCA, α-cyano-4-hydroxycinnamic acid] has a pH of 2.75.

Test: Solubility of matrix in acetonitrile/de-ionized water matrix solvent
Format: physicochemical
Settings: acetonitrile/de-ionized water 1:1 (v/v), aqueous with cosolvent or surfactant or cyclodextrin, thermodynamic from solid; 1:1 volumetric ratio acetonitrile to de-ionized water; read-out: Matrix concentration that displayed insolubility
Method: To further investigate the sample concentrating properties of CNT anchor spots, experiments were conducted using varying concentration of sample. Solutions were prepared. A solution of 1:1 volumetric ratio of acetonitrile to de-ionized water was prepared as a matrix solvent. Dry crystalline matrix αCHCA was weighed out with a Sartorius Research (Goettingen, Germany) model R200D digital precision balance and combined in a 1.5 mL Eppendorf® Safe-Lock Microcentrifuge tube (Westbury, N.Y.) with sufficient quantity of solution to achieve a matrix concentration varied over three orders of magnitude from 0.006 mg/mL to 6 mg/mL. […] All matrix solutions were prepared freshly and independently of each other in order to reduce possibility of concentration error. The samples were prepared by manually depositing 0.2 μL of solution from pipette to new carbon nanotube enhanced substrates (same parameters as previous experiment). The droplets were allowed to dry in ambient conditions (room temperature 23° C.), and time-lapse images were captured using the optical microscope described previously.
For N#CC(=Cc1ccc(O)cc1)C(=O)O [αCHCA, α-cyano-4-hydroxycinnamic acid], the solubility was > 6000 µg/mL.
